These results are taken from US20250282754A1, “BICYCLIC COMPOUNDS AND THEIR USE AS PEST CONTROL AGENTS” (Pl Industries Ltd., priority 2022, published 2025).

In this test the test system is Bemisia tabaci. Nature of the test: Bemisia tabaci leaf dip test (brinjal leaves, whitefly adults). It counts as in vivo. Conditions: foliar, dead and moribund whitefly adults 72 h after release, compared to untreated controls, read-out: percent mortality. The protocol: The leaf dip method was used for testing, wherein the required quantity of the compound was weighed and dissolved in a tube containing a solvent solution. The tube was put on a vortex at 2000 rpm for proper mixing and then diluted with a 0.01% Triton-X solution to the desired test concentration. Brinjal leaves were dipped in the compound solution for 10 seconds; shade dried for 20 min and then placed, with the abaxial side of the leaf up, on 4 ml of a solidified 1% agar-agar solution in respective container caps. Known numbers of freshly emerged whitefly adults were collected, using a modified aspirator, and released into a perforated container in which the cap containing the treated leaf was placed. The containers were kept in a plant growth chamber at a temperature of 25° C. and relative humidity of 70%. Observations on dead, moribund and alive adults were recorded 72 h after the release. Percent mortality was calculated by combining dead and moribund adults and comparing the result to the one of the untreated controls. The compounds 1 9 11 18 25 28 29 30 31
The mortality is the percentage killed. As to `CC(C)(C)S(C)(=O)=Nc1ccc2nn(-c3cncc(F)c3)cc2c1` (centres unmarked) [Compound 293], the mortality at 300 ppm was not below 70%. Then `CC(C)CCS(=O)(=Nc1ccc2nn(-c3cncnc3)cc2c1)C(C)C` (centres unmarked) [Compound 294], with not below 70%. Then `CCCS(=O)(CCC)=Nc1ccc2nn(-c3cncc(F)c3)cc2n1` [Compound 310], with not below 70%; and `CN=S(=O)(c1ccc2nn(-c3cccnc3)cc2c1)C(C)C` (centres unmarked) [Compound 408], with not below 70%; and `CC(C)S(=O)(=Nc1ccc2nn(-c3cncnc3)cc2c1)C(C)C` [Compound 31], with not below 70%. The same measure for `COc1nn(-c2ccc3nn(-c4ccc(C)nc4C)cc3c2)c(=O)n1C` [Compound 116, 2-(2-(2,6-dimethylpyridin-3-yl)-2H-indazol-5-yl)-5-methoxy-4-methyl-2,4-dihydro-3H-1,2,4-triazol-3-one]: not below 70%; for `CCCS(=O)(CCC)=Nc1cc2cn(-c3cncnc3)nc2cn1` [Compound 278]: not below 70%. `CCS(=O)(=Nc1ccc(F)c2nn(-c3cccnc3)cc12)C(C)C` (centres unmarked) [Compound 108]: the mortality at 300 ppm was not below 70%. As for `COc1nn(-c2ccc3nn(-c4cccnc4)cc3c2)c(=O)n1Cc1ccc(Cl)cc1Cl` [Compound 369, 4-(2,4-dichlorobenzyl)-5-methoxy-2-(2-(pyridin-3-yl)-2H-indazol-5-yl)-2,4-dihydro-3H-1,2,4-triazol-3-one], the mortality at 300 ppm was not below 70%. Then `CCCCS(=O)(CC)=Nc1ccc2nn(-c3cncnc3)cc2n1` (centres unmarked) [Compound 220], with not below 70%; and `CC(C)S(=O)(CC1CCC1)=Nc1ccc2nn(-c3cccnc3)cc2n1` (centres unmarked) [Compound 289], with not below 70%; and `CCN=S(=O)(CC1CCC1)c1ccc2nn(-c3cncnc3)cc2c1` (centres unmarked) [Compound 466], with not below 70%.

Consider `O=S(CCC(F)(F)F)(=Nc1ccc2nn(-c3cncc(F)c3)cc2c1)c1ccccc1` (centres unmarked) [Compound 65], for which the mortality at 300 ppm was not below 70%.

In the case of `CC(C)S(C)(=O)=Nc1ccc2nn(-c3cncc(F)c3)cc2n1` (centres unmarked) [Compound 311], the mortality at 300 ppm is not below 70%.

Turning to `COc1nn(-c2ccc3nn(-c4cccnc4)cc3c2)c(=O)n1Cc1ccccc1F` [Compound 122, 4-(2-fluorobenzyl)-5-methoxy-2-(2-(pyridin-3-yl)-2H-indazol-5-yl)-2,4-dihydro-3H-1,2,4-triazol-3-one], the mortality at 300 ppm is not below 70%. For the compound `CS(=O)(=Nc1ccc2nn(-c3cncnc3)cc2n1)C1CCCCC1` (centres unmarked) [Compound 223], the mortality at 300 ppm was not below 70%. As for `CC(C)S(=N)(=O)c1ccc2nn(-c3cncnc3)cc2c1` (centres unmarked) [Compound 410, imino(isopropyl)(2-(pyrimidin-5-yl)-2H-indazol-5-yl)-λ^6-sulfanone], the mortality at 300 ppm was not below 70%.

Consider `CC(=O)N=S(=O)(c1ccc2nn(-c3cncnc3)cc2c1)C(C)C` (centres unmarked) [Compound 418], for which the mortality at 300 ppm was not below 70%.

As for `CCS(=O)(CC)=Nc1ccc2nn(-c3cncc(F)c3)cc2n1` [Compound 308], the mortality at 300 ppm was not below 70%. For `CCS(=O)(=Nc1ccc2nn(-c3ccnnc3)cc2c1)C(C)C` (centres unmarked) [Compound 48], the mortality at 300 ppm is not below 70%. With `COc1ccc(S(=O)(CCC(F)(F)F)=Nc2ccc3nn(-c4cncc(F)c4)cc3c2)cc1` (centres unmarked) [Compound 66], the mortality at 300 ppm was not below 70%. For `CCN(C)S(=O)(=Nc1ccc2nn(-c3cncnc3)cc2c1)C1CC1` (centres unmarked) [Compound 135, N-ethyl-N-methyl-N′-(2-(pyrimidin-5-yl)-2H-indazol-5-yl)cyclopropanesulfonimidamide], the mortality at 300 ppm is not below 70%. On to `CCS(=O)(CC)=Nc1ccc2nn(-c3cncnc3)cc2n1` [Compound 219], for which the mortality at 300 ppm is not below 70%. The same measure for `CCCS(=O)(CCC)=Nc1cccc2nn(-c3cncc(F)c3)cc12` [Compound 77]: not below 70%; for `CC(C)S(C)(=O)=Nc1cccc2nn(-c3cccnc3)cc12` (centres unmarked) [Compound 74]: not below 70%. The same measure for `N=S(=O)(CCC1CCCCC1)c1ccc2nn(-c3cccnc3)cc2c1` (centres unmarked) [Compound 561, (2-cyclohexylethyl)(imino)(2-(pyridin-3-yl)-2H-indazol-5-yl)-λ^6-sulfanone]: not below 70%; for `CS(C)(=O)=NC(=O)c1ccc2nn(-c3cncnc3)cc2c1` [Compound 228, N-(dimethyl(oxo)-λ^6-sulfaneylidene)-2-(pyrimidin-5-yl)-2H-indazole-5-carboxamide]: not below 70%; for `CCS(=O)(CC)=NC(=O)c1ccc2nn(-c3cncnc3)cc2c1` [Compound 231, N-(diethyl(oxo)-λ^6-sulfaneylidene)-2-(pyrimidin-5-yl)-2H-indazole-5-carboxamide]: not below 70%. `CCCCS(=O)(CC)=Nc1ccc2nn(-c3cccnc3)cc2n1` (centres unmarked) [Compound 214]: the mortality at 300 ppm was not below 70%. Then `N=S(=O)(c1ccc2nn(-c3cccnc3)cc2c1)C1CCC1` (centres unmarked) [Compound 554, cyclobutyl(imino)(2-(pyridin-3-yl)-2H-indazol-5-yl)-λ^6-sulfanone], with not below 70%; and `O=S(CCC(F)(F)F)(=Nc1ccc2nn(-c3ccnnc3)cc2c1)c1ccccc1` (centres unmarked) [Compound 68], with not below 70%; and `CCCS(=O)(CCC)=Nc1cnc2nn(-c3cncnc3)cc2c1` [Compound 184], with not below 70%. For the compound `CC(C)S(=O)(=NC(=O)C(F)F)c1ccc2nn(-c3cncnc3)cc2c1` (centres unmarked) [Compound 421], the mortality at 300 ppm was not below 70%. The same measure for `CCS(=O)(=Nc1ccc2nn(-c3cncnc3)cc2c1)c1ccccc1` (centres unmarked) [Compound 34]: not below 70%.

In the case of `CC(C)CS(=O)(CC(C)C)=Nc1ccc2nn(-c3cncnc3)cc2n1` [Compound 221], the mortality at 300 ppm is not below 70%. Regarding `CCCS(C)(=O)=Nc1ccc2nn(-c3cncc(F)c3)cc2n1` (centres unmarked) [Compound 309], the mortality at 300 ppm was not below 70%. As to `CCS(=O)(CC)=Nc1ccc2nn(-c3ccnnc3)cc2c1` [Compound 43], the mortality at 300 ppm was not below 70%. As to `CCS(C)(=O)=Nc1ccc2nn(-c3cncc(F)c3)cc2n1` (centres unmarked) [Compound 307], the mortality at 300 ppm is not below 70%. For the compound `N=S(=O)(CC1CCC1)c1ccc2nn(-c3cncnc3)cc2c1` (centres unmarked) [Compound 465, (cyclobutylmethyl)(imino)(2-(pyrimidin-5-yl)-2H-indazol-5-yl)-λ^6-sulfanone], the mortality at 300 ppm is not below 70%.

Take `COc1nn(-c2ccc3nn(-c4cccnc4)cc3c2)c(=O)n1Cc1ccc(Cl)c(Cl)c1` [Compound 368, 4-(3,4-dichlorobenzyl)-5-methoxy-2-(2-(pyridin-3-yl)-2H-indazol-5-yl)-2,4-dihydro-3H-1,2,4-triazol-3-one]: the mortality at 300 ppm is not below 70%.

`CC(C)S(=O)(=Nc1ccc2nn(-c3cncnc3)cc2c1)c1ccc(F)cc1` (centres unmarked) [Compound 18]: the mortality at 300 ppm is not below 70%.

Regarding `CCS(=O)(=Nc1cncc(C(F)(F)F)n1)c1ccc2nn(-c3cncc(F)c3)cc2c1` (centres unmarked) [Compound 463], the mortality at 300 ppm was not below 70%.

`CC(C)CS(=O)(CC(C)C)=Nc1ccc2nn(-c3cccnc3)cc2c1` [Compound 79]: the mortality at 300 ppm was not below 70%. Consider `N=S(=O)(CCC(F)(F)F)c1ccc2nn(-c3cccnc3)cc2c1` (centres unmarked) [Compound 580, imino(2-(pyridin-3-yl)-2H-indazol-5-yl)(3,3,3-trifluoropropyl)-λ^6-sulfanone], for which the mortality at 300 ppm was not below 70%.
